Results published in patent US20120129843A1, “PYRIDYL-THIAZOLYL INHIBITORS OF PRO-MATRIX METALLOPROTEINASE ACTIVATION” (priority 2010, published 2012).

Experiments:
[1] = tested on: rats with SCW-induced arthritis; test: Efficacy in rats with SCW-induced arthritis (ankle thickness, clinical score); assay type: in vivo, rat; conditions: for Clinical Scores (0-8), Day 18 (mean): Day 18, start of treatment; for Clinical Scores (0-8), Day 26 (mean): Day 18-26
From the text: A polyarthritis can be induced in female Lewis rats following i.p. administration of streptococcal cell wall (SCW) proteoglycan-polysaccharides (PG-PS) (J Exp Med 1977; 146:1585-1602). The model has an acute phase (days 3-7) that is complement and neutrophil-dependent and that resolves. A chronic erosive phase begins at about day ten and is dependent on the development of specific T cell immunity to the PG-GS, which resists digestion and remains present in synovial macrophages for months. Like rheumatoid arthritis, SCW-induced arthritis is reduced by TNF inhibitors, and the dependence of SCW-induced arthritis on macrophages (Rheumatology; 2001; 40:978-987) and the strong association of rheumatoid arthritis severity with synovial-tissue macrophage counts (Ann Rheum Dis; 2005; 64:834-838) makes SCW-arthritis an attractive model for testing potential therapeutic agents. SCW PG-PS 10S (Beckton Dickinson Cat#210866) suspended in saline was vortexed for 30 seconds and sonicated for 3 min with a probe type sonicator prior to injection. Female Lewis (LEW/N) rats, 5-6 weeks of age (80-100 g) were injected (i.p.) with SCW PG-PS (15 μg of rhamnose/gram BW) in the lower left quadrant of the abdomen using a 1 mL syringe fitted with a 23-gauge needle. Control (disease-free) rats were treated in a similar manner with sterile saline. Control rats were sacrificed on day 5 and groups of SCW-injected rats were sacrificed on day 5 when acute inflammation was maximal or on day 18 when chronic inflammation was established.
To induce arthritis, Female Lewis (LEW/N) rats, 5-6 weeks of age (80-100 g) were injected (i.p.) with SCW PG-PS as described above. Eighteen days later, arthritis was well established. Calipers were used to measure the width (anterior to posterior surface) of the left and right hind ankles of each rat. Each ankle was measured 3 times and averaged, and treatment groups were randomized based on ankle thickness (Table 6). Commencing on day 18, randomized groups of arthritic rats (n=5 rats/group) received vehicle or 5, 20, or 50 mg/kg Compound-α BID by oral gavage. Vehicle consisted of an aqueous mixture containing 2% (v:v) N-methylpyrrolidone, 5% (v:v) glycerine, and 20% (w:v) captisol. Treatment continued daily through the morning of day 26.
By day 18 mean ankle thickness was increased an average of >4.4 mm compared to disease free rats. Rats treated with vehicle alone continued to gradually develop a more severe arthritis based on ankle thickness measurements over the eight-day treatment period (Table 6). […] By day 26, the disease associated increase in ankle thickness had been reduced 27, 37, and 46 percent by 5, 20, and 50 mg/kg Compound-α, respectively.
Hind paw inflammation clinical scores were assigned based on swelling and erythema.

[2] = target: T1, MMP9 mediated gelatinase activity in the livers (Rattus norvegicus, UniProt P50282); test: In situ zymography of gelatinase activity in livers of SCW-induced rats dosed with compound; assay type: in vivo; conditions: for Intensity, Mean / Intensity, Rat 1 / Intensity, Rat 2 / Intensity, Rat 3: SCW, Day 25-28
T1 construct: from tissue; host or cells: frozen liver sections of female Lewis rats
From the text: Compound-α Reduced MMP9 Mediated Gelatinase Activity in the Livers of Rats with SCW Arthritis In situ zymography provides an alternative approach to assess active MMP9 in tissues (Frederiks). Tissue sections are overlain with fluorescene-conjugated gelatin wherein the conjugation is sufficiently dense to cause the fluorescene to be dye-quenched (DQ). Proteolytic degradation of the DQ-gelatin releases the fluorescene from the quenching effect giving rise to bright green fluorescence at the site of degradation. Because in situ zymography requires the use of frozen sections, calcified tissues are problematic. However, an additional feature of the SCW arthritis model is the development of hepatic granulomatous disease (J Immunol; 1986; 137:2199-2209), and MMP9 reportedly plays a role in macrophage recruitment in the granulomas response to mycobacteria (Infect Immun; 2006; 74:6135-6144). Consequently, granulomatous livers from SCW-treated rats were assessed for active MMP9 by in situ zymography.
As described above, Female Lewis (LEW/N) rats, 5-6 weeks of age (80-100 g) were injected (i.p.) with saline or SCW PG-PS. On day 28, when the granulomatous response was well established, animals were sacrificed and livers were frozen in OCT cryo-sectioning medium and 10 μm sections were cut on a Cryome HM 500 M cryotome and mounted on glass microscope slides. Sections were air dried briefly. MMP9 was confirmed as the source of the gelatinase activity in the liver by treating liver sections with monoclonal antibodies directed against the active site of the two major gelatinases MMP9 and MMP2. Liver sections overlain with 50 μL of 100 μg/mL neutralizing mouse monoclonal antibodies directed against MMP9 (Calbiochem, clone 6-6B), or MMP2 (Millipore, clone CA-4001), or with PBS for 1 hr at room temperature. Tissues were rinsed once with PBS, blotted, and briefly air dried and then overlain with DQ-gelatin (Invitrogen) dissolved to 1 mg/mL in deionized water and then diluted 1:10 in 1% wt/vol low gelling point agarose type VII (Sigma) in PBS. The sections were covered with coverslips, incubated in the dark at room temperature for 20 min, and imaged on an Olympus IX80 inverted microscope fitted with fluorescence optics, using SlideBook™ imaging software (Intelligent Imaging Innovations, Inc., Philadelphia, Pa.; version 5.0). Fluorescence intensity was determined (Table 8). When compared to a saline-treated rat, gelatinase activity was abundantly expressed in granulomatous liver sections obtained from a rat with SCW arthritis.
Next, liver in situ zymography was used to assess the relative presence of active MMP9 in rats dosed with vehicle vs. Compound-α. Female Lewis (LEW/N) rats, 5-6 weeks of age (80-100 g) were injected (i.p.) with saline or SCW PG-PS. Commencing on day 25, randomized groups of rats (n=3 rats/group) received vehicle or 20 or 50 mg/kg Compound-α BID by oral gavage. Vehicle consisted of an aqueous mixture containing 2% (v:v) N-methylpyrrolidone, 5% (v:v) glycerine, and 20% (w:v) captisol. Treatment continued daily through the morning of day 28. Four hrs after the AM dose on day 28, rats were sacrificed and livers assessed for active MMP9 by in situ zymography (Table 9). Gelatinase activity was increased markedly in SCW-induced rats, but activity was reduced by approximately 80% in animals treated with 50 mg/kg Compound-α.

T1 sequence (P50282 20-708): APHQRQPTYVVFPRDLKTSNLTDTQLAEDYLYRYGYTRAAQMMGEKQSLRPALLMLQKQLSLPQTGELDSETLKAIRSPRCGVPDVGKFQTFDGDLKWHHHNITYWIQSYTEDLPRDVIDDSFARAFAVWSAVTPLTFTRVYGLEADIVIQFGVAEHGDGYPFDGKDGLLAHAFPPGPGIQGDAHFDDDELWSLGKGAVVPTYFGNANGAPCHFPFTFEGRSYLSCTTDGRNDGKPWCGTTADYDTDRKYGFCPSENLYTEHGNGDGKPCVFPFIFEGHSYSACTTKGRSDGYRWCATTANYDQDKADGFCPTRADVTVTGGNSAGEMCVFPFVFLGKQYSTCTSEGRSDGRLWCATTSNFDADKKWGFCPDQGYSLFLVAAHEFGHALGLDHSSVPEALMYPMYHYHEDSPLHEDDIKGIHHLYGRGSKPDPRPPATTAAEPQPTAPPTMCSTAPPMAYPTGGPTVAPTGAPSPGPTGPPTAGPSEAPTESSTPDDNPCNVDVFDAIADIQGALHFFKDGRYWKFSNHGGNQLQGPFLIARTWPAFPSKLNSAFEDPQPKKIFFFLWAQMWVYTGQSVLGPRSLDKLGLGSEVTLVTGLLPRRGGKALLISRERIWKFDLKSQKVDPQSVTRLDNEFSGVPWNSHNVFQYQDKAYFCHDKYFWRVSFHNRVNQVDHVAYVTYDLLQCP

reduction of liver gelatinase activity ([2]; 50 mg/kg, SCW-induced rats): approximately 80%
Intensity, Mean ([2]; 20 mg/kg BID oral): 55.2 RLU × 10^6
Intensity, Rat 1 ([2]; 20 mg/kg BID oral): 43.0 RLU × 10^6
Intensity, Rat 2 ([2]; 20 mg/kg BID oral): 69.0 RLU × 10^6
Intensity, Rat 3 ([2]; 20 mg/kg BID oral): 53.7 RLU × 10^6
Intensity, Mean ([2]; 50 mg/kg BID oral): 11.1 RLU × 10^6
Intensity, Rat 1 ([2]; 50 mg/kg BID oral): 3.2 RLU × 10^6
Intensity, Rat 2 ([2]; 50 mg/kg BID oral): 25.6 RLU × 10^6
Intensity, Rat 3 ([2]; 50 mg/kg BID oral): 4.5 RLU × 10^6
SMILES: Cc1nc(C)c(-c2csc(Nc3cc(S(N)(=O)=O)ccc3OC(C)C)n2)s1 [Compound-α, 3-(2′,4′-Dimethyl-[4,5′]bithiazolyl-2-ylamino)-4-isopropoxy-benzenesulfonamide.HBr]
Clinical Scores (0-8), Day 18 (mean) ([1]; 5 mg/kg BID group): 8.00
Clinical Scores (0-8), Day 26 (mean) ([1]; 5 mg/kg BID): 6.80
Clinical Scores (0-8), Day 18 (mean) ([1]; 20 mg/kg BID group): 8.00
Clinical Scores (0-8), Day 26 (mean) ([1]; 20 mg/kg BID): 5.20
Clinical Scores (0-8), Day 18 (mean) ([1]; 50 mg/kg BID group): 7.80
Clinical Scores (0-8), Day 26 (mean) ([1]; 50 mg/kg BID): 4.40
